Measured values reported in patent US20250270198A1, “PYRIDONE COMPOUNDS AS TRPA1 INHIBITORS” (D. E. Shaw Research, LLC, priority 2022, published 2025).

Tests used:
human TRPA1 channel = human TRPA1 channel (Homo sapiens (Human), UniProt O75762); assay: TRPA1 inhibitor activity, automated patch clamp (SyncroPatch); format: cell-based; details: CHO cells inducibly expressing human TRPA1, currents elicited by carvacrol (300 μM), holding potential −60 mV
Description: This assay was used to evaluate the disclosed compounds' inhibition activities against the human TRPA1 channel.
CHO cells inducibly expressing human TRPA1 were grown in DMEM containing 10% heat-inactivated FBS, 1 mM Sodium Pyruvate, 2 mM L-Glutamine, Zeocin (100 μg/ml) and Blasticidin (10 μg/ml). Expression was induced by addition of Doxycycline (1 μg/ml) 24 hours before experiments. Cells used for electrophysiology were plated in plastic culture flasks and grown at 37° C. in a 5% CO2-humidified tissue culture incubator per ChanPharm SOP. Stocks were maintained in cryogenic storage.
The cells were bathed in an extracellular solution containing 80 mM NaCl, 60 mM NMDG, 4 mM KCl, 2 mM CaCl2), 6 mM MgCl2, 5 mM Glucose. 10 mM HEPES, 3 mM HEDTA; pH adjusted to 7.4 with NaOH; 305-310 mOsm. All compounds were dissolved in DMSO at 30 mM. The internal solution contained 10 mM CsCl, 110 mM CsF, 10 mM NaCl, 10 mM EGTA, 10 mM HEPES, 4 mM MgATP, 0.25 mM NaGTP, 4 mM BAPTA; pH adjusted to 7.2 with CsOH; 285-290 mOsm. Compound stock solutions were freshly diluted with external solution to concentrations of 3 nM, 10 nM 30 nM, 100 nM, 300 nM, 1 μM, 3 μM, 10 μM, and 30 μM. The highest content of DMSO (0.1%) was present at 30 μM.
All experiments were performed at room temperature. Each cell acted as its own control. In preparation for a current recording session, intracellular solution (see above) was loaded into the intracellular compartments of the automated patch clamp platform SyncroPatch (Nanion) chip and the cell suspension was pipetted into the extracellular compartments. After establishment of a whole-cell configuration, membrane current recordings and compound application were enabled by means of the SyncroPatch. TRPA1 currents were elicited by application of carvacrol (300 μM) at a constant holding potential of −60 mV (see Table A below).
To determine IC50 values, AUC and peak values, obtained in the presence of a given compound concentration, were normalized to control values in absence of compound. Using DataControl384 (Nanion's proprietary software), IC50 values were derived by fitting the normalized data to the Hill equation.

hERG channel = hERG channel (Homo sapiens (Human), UniProt Q12809); assay: hERG activity, automated patch clamp (SyncroPatch); format: cell-based; details: CHO-K1 cells stably expressing hERG, tail current at −50 mV, compounds at 50 μM and 100 μM
hERG channel, sequence (Q12809 whole entry): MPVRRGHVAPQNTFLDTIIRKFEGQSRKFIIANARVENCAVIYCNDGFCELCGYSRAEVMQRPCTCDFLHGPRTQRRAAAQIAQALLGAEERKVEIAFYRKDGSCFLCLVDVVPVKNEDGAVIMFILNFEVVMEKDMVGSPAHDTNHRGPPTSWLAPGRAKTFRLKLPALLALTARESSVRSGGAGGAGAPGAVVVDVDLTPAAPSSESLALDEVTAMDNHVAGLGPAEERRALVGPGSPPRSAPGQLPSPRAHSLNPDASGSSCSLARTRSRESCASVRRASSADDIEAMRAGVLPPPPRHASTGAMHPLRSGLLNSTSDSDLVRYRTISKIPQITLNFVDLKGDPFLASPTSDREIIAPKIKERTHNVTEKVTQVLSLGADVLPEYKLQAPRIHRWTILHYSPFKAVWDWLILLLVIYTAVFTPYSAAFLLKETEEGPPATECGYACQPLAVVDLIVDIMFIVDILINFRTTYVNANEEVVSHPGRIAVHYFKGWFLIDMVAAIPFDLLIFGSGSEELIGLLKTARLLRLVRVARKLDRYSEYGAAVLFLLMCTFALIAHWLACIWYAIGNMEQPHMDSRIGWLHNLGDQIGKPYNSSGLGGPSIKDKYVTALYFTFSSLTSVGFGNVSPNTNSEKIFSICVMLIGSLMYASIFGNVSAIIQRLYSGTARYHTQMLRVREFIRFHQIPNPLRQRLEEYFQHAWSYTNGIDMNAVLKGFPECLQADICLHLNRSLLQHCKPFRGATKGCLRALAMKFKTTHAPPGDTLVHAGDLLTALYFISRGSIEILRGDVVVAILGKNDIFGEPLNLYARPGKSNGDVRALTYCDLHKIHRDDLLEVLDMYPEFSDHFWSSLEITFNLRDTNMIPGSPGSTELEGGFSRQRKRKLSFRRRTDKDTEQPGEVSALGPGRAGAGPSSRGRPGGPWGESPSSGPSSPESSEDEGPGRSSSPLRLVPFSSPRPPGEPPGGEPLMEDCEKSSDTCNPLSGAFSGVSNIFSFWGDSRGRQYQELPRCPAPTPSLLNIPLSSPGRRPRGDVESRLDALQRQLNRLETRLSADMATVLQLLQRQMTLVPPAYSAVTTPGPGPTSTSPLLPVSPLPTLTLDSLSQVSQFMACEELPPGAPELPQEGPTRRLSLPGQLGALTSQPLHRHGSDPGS
Description: This assay was used to evaluate the disclosed compounds' inhibition activities against the hERG channel.
CHO-K1 cells stably expressing hERG were grown in Ham's F-12 Medium with Glutamine containing 10% heat-inactivated FBS, 1% Penicillin/Streptomycin, Hygromycin (100 μg/ml), and G418 (100 μg/ml). Cells used for electrophysiology were plated in plastic culture flasks and grown at 37° C. in a 5% CO2-humidified incubator per ChanPharm SOP. Stocks were maintained in cryogenic storage.
The cells were bathed in an extracellular solution containing 140 mM NaCl, 4 mM KCl, 2 mM CaCl2), 1 mM MgCl2, 5 mM Glucose, and 10 mM HEPES; pH adjusted to 7.4 with NaOH; 295-305 mOsm. The internal solution contained 10 mM KCl, 110 mM KF, 10 mM NaCl, 10 mM EGTA, 10 mM HEPES; pH adjusted to 7.2 with KOH; 280-285 mOsm. All compounds were dissolved in DMSO at 30 mM. Compound stock solutions were freshly diluted with external solution to concentrations of 50 μM and 100 μM. The highest content of DMSO […].
All experiments were performed at room temperature. Each cell acted as its own control. In preparation for a recording session, intracellular solution (see above) was loaded into the intracellular compartments of the automated patch clamp platform SyncroPatch (Nanion) chip and the cell suspension was pipetted into the extracellular compartments. After establishment of a whole-cell configuration, membrane current recordings, and compound application were enabled by means of the SyncroPatch. hERG currents were elicited by a voltage pulse pattern with fixed amplitudes (depolarization: +20 mV amplitude, 300 ms duration; repolarization: −50 mV, 300 ms duration) repeated at 3 s intervals from a holding potential of −80 mV.
Data acquisition and analysis were performed using DataControl384 (Nanion's proprietary software). To determine the (percentage) inhibition, the last single pulse in the pulse train (i.e., the repolarization step to −50 mV; tail current) at a given compound concentration was used. AUC and peak values, obtained in the presence of compound, were normalized to control values in the absence of compound.

human TRPA1 channel, sequence (O75762 whole entry): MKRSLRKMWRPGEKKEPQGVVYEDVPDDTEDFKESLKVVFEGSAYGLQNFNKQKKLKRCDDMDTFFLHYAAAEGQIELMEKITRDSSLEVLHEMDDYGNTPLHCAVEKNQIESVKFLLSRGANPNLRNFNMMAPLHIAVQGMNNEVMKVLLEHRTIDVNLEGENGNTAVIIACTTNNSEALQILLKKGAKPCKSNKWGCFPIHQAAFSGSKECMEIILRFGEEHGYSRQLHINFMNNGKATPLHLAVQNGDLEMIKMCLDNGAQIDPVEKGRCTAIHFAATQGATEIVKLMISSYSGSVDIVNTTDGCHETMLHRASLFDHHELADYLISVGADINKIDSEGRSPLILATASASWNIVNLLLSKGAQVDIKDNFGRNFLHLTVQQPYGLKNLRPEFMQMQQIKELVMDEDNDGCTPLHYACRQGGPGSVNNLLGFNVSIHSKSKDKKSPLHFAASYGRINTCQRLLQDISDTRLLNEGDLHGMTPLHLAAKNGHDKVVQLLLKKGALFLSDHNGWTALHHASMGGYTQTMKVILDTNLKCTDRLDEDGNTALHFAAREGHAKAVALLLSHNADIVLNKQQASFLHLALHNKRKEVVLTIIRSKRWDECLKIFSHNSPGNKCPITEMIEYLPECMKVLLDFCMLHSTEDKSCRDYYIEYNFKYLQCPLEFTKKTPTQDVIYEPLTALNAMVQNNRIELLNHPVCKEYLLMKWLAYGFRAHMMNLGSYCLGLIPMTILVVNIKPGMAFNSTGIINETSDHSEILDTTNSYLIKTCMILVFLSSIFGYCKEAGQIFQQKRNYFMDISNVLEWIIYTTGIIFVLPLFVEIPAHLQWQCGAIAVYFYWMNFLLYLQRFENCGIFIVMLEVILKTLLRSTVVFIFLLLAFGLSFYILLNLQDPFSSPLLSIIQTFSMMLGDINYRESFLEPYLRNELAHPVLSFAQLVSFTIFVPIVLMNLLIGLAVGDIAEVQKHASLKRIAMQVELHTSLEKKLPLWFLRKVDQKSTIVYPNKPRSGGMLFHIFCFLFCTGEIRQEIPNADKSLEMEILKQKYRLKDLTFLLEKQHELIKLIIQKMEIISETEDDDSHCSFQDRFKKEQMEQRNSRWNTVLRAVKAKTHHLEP

SMILES | IC50 (human TRPA1 channel; Table 4) | IC50 (human TRPA1 channel; Table 5) | IC50 (hERG channel; Table 4) | IC50 (hERG channel; Table 5)
Cn1cc(-c2ccn(Cc3nc(C[C@H](O)c4ccc(Cl)cc4)no3)c(=O)c2Cl)cn1 [Compound 18, (S)-3-chloro-1-((3-(2-(4-chlorophenyl)-2-hydroxyethyl)-1,2,4-oxadiazol-5-yl)methyl)-4-(1-methyl-1H-pyrazol-4-yl)pyridin-2(1H)-one] | < 1 µM | – | < 50 µM | –
Cc1cc(-c2cn[nH]c2)cn(Cc2nc(CCc3ccc(Cl)cc3)no2)c1=O [Compound 8, 1-((3-(4-chlorophenethyl)-1,2,4-oxadiazol-5-yl)methyl)-3-methyl-5-(1H-pyrazol-4-yl)pyridin-2(1H)-one] | < 10 µM | – | < 50 µM | –
Cc1c(-c2cn[nH]c2)ncn(Cc2nc(C[C@H](O)c3ccc(Cl)cc3)no2)c1=O [Compound 65, (S)-3-((3-(2-(4-chlorophenyl)-2-hydroxyethyl)-1,2,4-oxadiazol-5-yl)methyl)-5-methyl-6-(1H-pyrazol-4-yl)pyrimidin-4(3H)-one] | – | < 0.3 µM | – | < 50 µM
NC(=O)c1cc(Cl)c(=O)n(Cc2nc(CCc3ccc(Cl)cc3)no2)c1 [Compound 6, 5-chloro-1-((3-(4-chlorophenethyl)-1,2,4-oxadiazol-5-yl)methyl)-6-oxo-1,6-dihydropyridine-3-carboxamide] | < 0.3 µM | – | < 50 µM | –
Nc1ncc(Cl)c(=O)n1Cc1nc(C[C@H](O)c2ccc(Cl)cc2)no1 [Compound 71, (S)-2-amino-5-chloro-3-((3-(2-(4-chlorophenyl)-2-hydroxyethyl)-1,2,4-oxadiazol-5-yl)methyl)pyrimidin-4(3H)-one] | – | < 0.1 µM | – | > 50 µM
Cc1cc(C(N)=O)cn(Cc2nc(CCc3ccc(Cl)cc3)no2)c1=O [Compound 4, 1-({3-[2-(4-chlorophenyl)ethyl]-1,2,4-oxadiazol-5-yl}methyl)-5-methyl-6-oxopyridine-3-carboxamide] | < 1 µM | – | > 50 µM | –
O=c1c(Cl)cnc(CO)n1Cc1nc(C[C@H](O)c2ccc(Cl)cc2)no1 [Compound 73, (S)-5-chloro-3-((3-(2-(4-chlorophenyl)-2-hydroxyethyl)-1,2,4-oxadiazol-5-yl)methyl)-2-(hydroxymethyl)pyrimidin-4(3H)-one] | – | < 0.1 µM | – | > 50 µM
NC(=O)c1cn(Cc2nc(C[C@H](O)c3ccc(Cl)cc3)no2)c(=O)c(Cl)n1 [Compound 26, (S)-6-chloro-4-((3-(2-(4-chlorophenyl)-2-hydroxyethyl)-1,2,4-oxadiazol-5-yl)methyl)-5-oxo-4,5-dihydropyrazine-2-carboxamide] | < 1 µM | – | > 50 µM | –
Cc1c(CN)ncn(Cc2nc(CCc3ccc(Cl)cc3)no2)c1=O [Compound 30, 6-(aminomethyl)-3-((3-(4-chlorophenethyl)-1,2,4-oxadiazol-5-yl)methyl)-5-methylpyrimidin-4(3H)-one] | < 0.3 µM | – | < 50 µM | –
O=c1c(Cl)c(CO)ccn1Cc1nc(C[C@H](O)c2ccc(Cl)cc2)no1 [Compound 17, (S)-3-chloro-1-((3-(2-(4-chlorophenyl)-2-hydroxyethyl)-1,2,4-oxadiazol-5-yl)methyl)-4-(hydroxymethyl)pyridin-2(1H)-one] | < 1 µM | – | > 50 µM | –

Continued, in another order:

IC50 (human TRPA1 channel; Table 4) | IC50 (human TRPA1 channel; Table 5) | SMILES | IC50 (hERG channel; Table 4) | IC50 (hERG channel; Table 5)
< 0.1 µM | – | Cc1ncn(Cc2nc(C[C@H](O)c3ccc(Cl)cc3)no2)c(=O)c1Cl [Compound 36, (S)-5-chloro-3-((3-(2-(4-chlorophenyl)-2-hydroxyethyl)-1,2,4-oxadiazol-5-yl)methyl)-6-methylpyrimidin-4(3H)-one] | > 50 µM | –
– | < 0.3 µM | Nc1c(Cl)ncn(Cc2nc(C[C@H](O)c3ccc(Cl)cc3)no2)c1=O [Compound 66, (S)-5-amino-6-chloro-3-((3-(2-(4-chlorophenyl)-2-hydroxyethyl)-1,2,4-oxadiazol-5-yl)methyl)pyrimidin-4(3H)-one] | – | > 50 µM
< 0.3 µM | – | Cc1nc(Br)cn(Cc2nc(C[C@H](O)c3ccc(Cl)cc3)no2)c1=O [Compound 27, (S)-5-bromo-1-((3-(2-(4-chlorophenyl)-2-hydroxyethyl)-1,2,4-oxadiazol-5-yl)methyl)-3-methylpyrazin-2(1H)-one] | < 50 µM | –
– | < 0.1 µM | O=c1c(Br)c(Cl)ncn1Cc1nc(C[C@H](O)c2ccc(Cl)cc2)no1 [Compound 67, (S)-5-bromo-6-chloro-3-((3-(2-(4-chlorophenyl)-2-hydroxyethyl)-1,2,4-oxadiazol-5-yl)methyl)pyrimidin-4(3H)-one] | – | < 50 µM
– | < 0.1 µM | Cc1c(Cl)ncn(Cc2nc(C[C@H](O)c3ccc(Cl)cc3)no2)c1=O [Compound 58, (S)-6-chloro-3-((3-(2-(4-chlorophenyl)-2-hydroxyethyl)-1,2,4-oxadiazol-5-yl)methyl)-5-methylpyrimidin-4(3H)-one] | – | > 50 µM
< 0.3 µM | – | O=c1c(Cl)c(-c2cn[nH]c2)ncn1Cc1nc(C[C@H](O)c2ccc(Cl)cc2)no1 [Compound 35, (S)-5-chloro-3-((3-(2-(4-chlorophenyl)-2-hydroxyethyl)-1,2,4-oxadiazol-5-yl)methyl)-6-(1H-pyrazol-4-yl)pyrimidin-4(3H)-one] | < 50 µM | –
< 3 µM | – | Nc1ccn(Cc2nc(C[C@H](O)c3ccc(Cl)cc3)no2)c(=O)c1Cl [Compound 14, (S)-4-amino-3-chloro-1-((3-(2-(4-chlorophenyl)-2-hydroxyethyl)-1,2,4-oxadiazol-5-yl)methyl)pyridin-2(1H)-one] | > 50 µM | –
– | < 0.3 µM | O=c1c(Cl)c(CO)ncn1Cc1nc(C[C@H](O)c2ccc(Cl)cc2)no1 [Compound 54, (S)-5-chloro-3-((3-(2-(4-chlorophenyl)-2-hydroxyethyl)-1,2,4-oxadiazol-5-yl)methyl)-6-(hydroxymethyl)pyrimidin-4(3H)-one] | – | > 50 µM
< 0.3 µM | – | O=c1c(Cl)nccn1Cc1nc(C[C@H](O)c2ccc(Cl)cc2)no1 [Compound 22, (S)-3-chloro-1-((3-(2-(4-chlorophenyl)-2-hydroxyethyl)-1,2,4-oxadiazol-5-yl)methyl)pyrazin-2(1H)-one] | < 50 µM | –
– | < 0.3 µM | COc1ncn(Cc2nc(C[C@H](O)c3ccc(Cl)cc3)no2)c(=O)c1Cl [Compound 70, (S)-5-chloro-3-((3-(2-(4-chlorophenyl)-2-hydroxyethyl)-1,2,4-oxadiazol-5-yl)methyl)-6-methoxypyrimidin-4(3H)-one] | – | > 50 µM
< 0.3 µM | – | Cc1nc(C(N)=O)cn(Cc2nc(C[C@H](O)c3ccc(Cl)cc3)no2)c1=O [Compound 29, 4-({3-[(2S)-2-(4-chlorophenyl)-2-hydroxyethyl]-1,2,4-oxadiazol-5-yl}methyl)-6-methyl-5-oxopyrazine-2-carboxamide] | > 50 µM | –
